Results from patent publication US12310364B2, “Safened compositions comprising pyridine carboxylate herbicides and cloquintocet” (Corteva Agriscience LLC, priority 2018, dated 2025).

Key:
Type in all cases: in vivo
[1] = tested on: Hordeum vulgare (spring barley), HORVS; experiment: Greenhouse postemergence safening trial, visual injury on spring barley
Procedure: (§1) Greenhouse Trial Methodology-Evaluation of Postemergence Herbicidal […] in Crops […] When required to ensure good germination and healthy plants, a fungicide treatment and/or other chemical or physical treatment was applied. The plants were grown for 7-36 days (d) in a greenhouse with an approximate 14-hour (h) photoperiod which was maintained at about 23° C. during the day and 22° C. during the night. Nutrients and water were added on a regular basis and supplemental lighting was provided with overhead metal halide 1000-Watt lamps as necessary. The plants were employed for testing when they reached the second or third true leaf stage. Emulsifiable concentrates of each of each pyridine carboxylate herbicide (Compound A or Compound B) were prepared at 100 grams acid equivalent per liter (g ae/L). […] The concentrated stock solutions were further diluted with an aqueous mixture of 1.25% […] or MSO® Concentrate with LECI-TECH® to obtain stock solutions at reduced application rates for each herbicide. Spray solutions of the herbicide combinations (Compound A or Compound B plus safener) were prepared by adding weighed amounts or aliquots of the safener to the stock solutions of Compound A or Compound B to form 12-mL spray solutions in two-way combinations. […] Control plants were sprayed in the same manner with the solvent blank. All herbicide (component a) application rates are given as “g ae/ha” and all safener (component b) application rates are given as “g ai/ha.” The treated plants and control plants were placed in a greenhouse as described above and watered by sub-irrigation to prevent wash-off of the test compounds.

[2] = tested on: Brassica napus (winter rape), BRSNW; experiment: Greenhouse postemergence trial, visual injury on winter rape
Procedure: as §1

[3] = tested on: Triticum aestivum (spring wheat), TRZAS; experiment: Greenhouse postemergence safening trial, visual injury on spring wheat
Procedure: as §1

[4] = tested on: Matricaria chamomilla (wild chamomile), MATCH; experiment: Greenhouse postemergence trial, visual injury on wild chamomile
Procedure: as §1

[5] = tested on: Salsola kali (Russian thistle), SASKR; experiment: Greenhouse postemergence trial, visual injury on Russian thistle
Procedure: as §1

[6] = tested on: Avena sativa (common oat), AVESA; experiment: Greenhouse postemergence safening trial, visual injury on common oat; conditions: herbicide alone 40 g/ha
Procedure: as §1

[7] = tested on: Triticum aestivum (winter wheat), TRZAW; experiment: Greenhouse postemergence safening trial, visual injury on winter wheat; conditions: herbicide alone 40 g/ha
Procedure: as §1

[8] = tested on: Sinapis arvensis (wild mustard), SINAR; experiment: Greenhouse postemergence trial, visual injury on wild mustard; conditions: herbicide alone 20 g/ha
Description: (§2) Greenhouse Trial Methodology—Evaluation of Postemergence Herbicidal Safening in Crops
(§3) Seeds of the desired test plant species were planted in a 90:10% v/v (volume/volume) mixture of PRO-MIX® BX (Premier Tech Horticulture, Quakertown, PA, USA) and PROFILE® GREENS GRADE™ (Profile Products LLC, Buffalo Grove, IL, USA) planting mixture, which typically has a pH of 5.2 to 6.2 and an organic matter content of at least 50 percent, in plastic pots with a surface area of 103.2 square centimeters (cm^2). When required to ensure good germination and healthy plants, a fungicide treatment and/or other chemical or physical treatment was applied. The plants were grown for 7-36 days (d) in a greenhouse with an approximate 14-hour (h) photoperiod which was maintained at about 23° C. during the day and 22° C. during the night. Nutrients and water were added on a regular basis and supplemental lighting was provided with overhead metal halide 1000-Watt lamps as necessary. The plants were employed for testing when they reached the second or third true leaf stage.
(§4) Emulsifiable concentrates of each of each pyridine carboxylate herbicide (Compound A or Compound B) were prepared at 100 grams acid equivalent per liter (g ae/L). An aliquot of each emulsifiable concentrate was placed in a 25 mL glass vial and diluted with an aqueous mixture of 1.25% (v/v) ACTIROB® B esterified rapeseed oil (Bayer Crop Science, Research Triangle Park, NC, USA) or MSO® Concentrate with LECI-TECH® methylated soybean oil (Loveland Products, Loveland, CO, USA) to obtain concentrated stock solutions at the highest application rate for each herbicide, based upon a 12 milliliter (mL) application volume at a rate of 187 liters per hectare (L/ha). The concentrated stock solutions were further diluted with an aqueous mixture of 1.25% v/v ACTIROB® B or MSO® Concentrate with LECI-TECH® to obtain stock solutions at reduced application rates for each herbicide. Spray solutions of the herbicide combinations (Compound A or Compound B plus safener) were prepared by adding weighed amounts or aliquots of the safener to the stock solutions of Compound A or Compound B to form 12-mL spray solutions in two-way combinations.
(§5) The spray solutions were applied to the plant material with an overhead Mandel track sprayer equipped with 8002E nozzles calibrated to deliver 187 L/ha over an application area of 0.503 square meters (m^2) at a spray height of 18 inches (43 centimeters (cm)) above the average plant canopy. Control plants were sprayed in the same manner with the solvent blank. All herbicide (component a) application rates are given as “g ae/ha” and all safener (component b) application rates are given as “g ai/ha.”
(§6) The treated plants and control plants were placed in a greenhouse as described above and watered by sub-irrigation to prevent wash-off of the test compounds. After 20-22 d, the condition of the test plants as compared with that of the control plants was determined visually and scored on a scale of 0 to 100 percent where 0 corresponds to no injury and 100 corresponds to complete kill.

[9] = tested on: Polygonum convulvus (wild buckwheat), POLCO; experiment: Greenhouse postemergence trial, visual injury on wild buckwheat; conditions: herbicide alone 20 g/ha
Description: as §2, §3, §4, §5, §6

[10] = tested on: Triticum aestivum (durum wheat), TRZDU; experiment: Greenhouse postemergence safening trial, visual injury on durum wheat; conditions: herbicide alone 40 g/ha
Procedure: as §1

[11] = tested on: Fagopyrum esculentum (common buckwheat), FAGES; experiment: Greenhouse postemergence trial, visual injury on common buckwheat; conditions: herbicide alone 20 g/ha
Description: as §2, §3, §4, §5, §6

[12] = tested on: Hordeum vulgare (winter barley), HORVW; experiment: Greenhouse postemergence safening trial, visual injury on winter barley; conditions: herbicide alone 40 g/ha
Procedure: as §1

SMILES | % visual injury, Ob ([1]; safener alone 10 g/ha) | % visual injury, Ob ([1]; safener alone 20 g/ha) | % visual injury, Ob ([1]; safener alone 40 g/ha) | % visual injury, Ob ([2]; safener alone 10 g/ha) | % visual injury, Ob ([2]; safener alone 20 g/ha) | % visual injury, Ob ([2]; safener alone 40 g/ha) | % visual injury, Ob ([3]; safener alone 10 g/ha) | % visual injury, Ob ([3]; safener alone 20 g/ha) | % visual injury, Ob ([3]; safener alone 40 g/ha) | % visual injury, Ob ([4]; safener alone 10 g/ha) | % visual injury, Ob ([4]; safener alone 20 g/ha) | % visual injury, Ob ([4]; safener alone 40 g/ha) | % visual injury, Ob ([5]; safener alone 10 g/ha) | % visual injury, Ob ([5]; safener alone 20 g/ha) | % visual injury, Ob ([5]; safener alone 40 g/ha) | further results
COC(=O)COc1ccc(Cl)c2cccnc12 [CQC-methyl, cloquintocet-methyl] | 0% | 0% | 0% | 0% | 0% | 0% | 0% | 0% | 0% | 0% | 0% | 0% | 0% | 0% | 0% | –
CC(O)CN(CC(C)O)CC(C)O.O=C(O)COc1ccc(Cl)c2cccnc12 [CQC-TIPA, cloquintocet-triisopropanolamine salt] | 0% | 0% | 0% | 0% | 0% | 0% | 0% | 0% | 0% | 0% | 0% | 0% | 0% | 0% | 0% | –
C#CCOC(=O)c1nc(-c2ccc3cc[nH]c3c2F)c(F)c(N)c1Cl [Compound B, propargyl 4-amino-3-chloro-5-fluoro-6-(7-fluoro-1H-indol-6-yl)pyridine-2-carboxylate] | – | – | – | – | – | – | – | – | – | – | – | – | – | – | – | % visual injury, Ob ([1]; herbicide alone 20 g/ha): 30%; % visual injury, Ob ([1]; herbicide alone 40 g/ha): 25%; % visual injury, Ob ([2]; herbicide alone 20 g/ha): 100%; % visual injury, Ob [6]: 0%; % visual injury, Ob ([3]; herbicide alone 20 g/ha): 28%; % visual injury, Ob ([3]; herbicide alone 40 g/ha): 48%; % visual injury, Ob [7]: 50%; % visual injury, Ob [8]: 80%; % visual injury, Ob [9]: 100%; % visual injury, Ob [10]: 40%; % visual injury, Ob [11]: 78%; % visual injury Δ [12]: 0%; % visual injury, Ob [12]: 38%; % visual injury, Ob ([5]; herbicide alone 20 g/ha): 70%
